According to the RepoRT retention time repository:

assay: Thermo Scientific Acclaim RSLC 120 C18, 100 × 2.1 mm, 2.2 µm, 30 °C, 0.2 to 0.48 mL/min, estimated dead time 1.1 min; A: 90% water + 10% methanol + 5 mM ammonium acetate; B: methanol + 5 mM ammonium acetate; gradient (min/%B) 0.1/1 3/39 14/99.9 16/99.9; conditions: stereoisomer not certain

SMILES	LC retention time
NS(=O)(=O)c1cc(C(=O)O)cc(N2CCCC2)c1Oc1ccccc1	6.04 min
COCC(C)N(C(=O)CS(=O)(=O)O)c1c(C)csc1C (stereo not drawn)	6.97 min
Cc1cccc(C)c1NC(=O)C1CCCCN1C (stereo not drawn)	7.49 min
CCNc1nc(NCC)[nH]c(=O)n1	5.56 min
CNC(=C[N+](=O)[O-])NCCSCc1ccc(CN(C)C)o1	4.67 min
CCCCCCCCCCCCOS(=O)(=O)c1ccccc1	14.2 min
CC(C)Cc1ccc(C(C)C(=O)O)cc1 (stereo not drawn)	9.72 min
CCNc1nc(NC(C)(C)C)[nH]c(=O)n1	8.46 min
CC(C)C(NC(=O)C(CC(=O)O)NC(=O)C(CCCCN)NC(=O)C(N)CCCN=C(N)N)C(=O)NC(Cc1ccc(O)cc1)C(=O)O (stereo not drawn)	3.16 min
CC(C)C1(C)N=C(c2nc3ccccc3cc2C(=O)O)NC1=O (stereo not drawn)	4.85 min
CC(C)N1C(=O)c2ccccc2NS1(=O)=O	4.49 min
S=c1nc[nH]c2nc[nH]c12	2.62 min
CCC(C)c1cc([N+](=O)[O-])cc([N+](=O)[O-])c1O (stereo not drawn)	7.92 min
CC12CCC3C(CCC4=CC(=O)CCC43C)C1CCC2=O (stereo not drawn)	13.1 min
CCNC(=O)C(C)OC(=O)Nc1ccccc1 (stereo not drawn)	6.54 min
CCNP(=S)(OC)OC(C)=CC(=O)OC(C)C (stereo not drawn)	9.75 min
CC1=NNC(=O)N(N=Cc2cccnc2)C1	4.13 min
COC(=O)NC(C(=O)NC(Cc1ccccc1)C(O)CN(Cc1ccc(-c2ccccn2)cc1)NC(=O)C(NC(=O)OC)C(C)(C)C)C(C)(C)C (stereo not drawn)	12.4 min
COc1ccc(Oc2ccc(NC(=O)N(C)C)cc2)cc1	8.39 min
CC1CC(C)C(=O)C(C(O)CC2CC(=O)NC(=O)C2)C1 (stereo not drawn)	6.32 min
C=CC(=O)NC(C)(C)CS(=O)(=O)O	2.5 min
CCc1cccc2c3c([nH]c12)C(CC)(CC(=O)O)OCC3 (stereo not drawn)	10.5 min
COC1CC(OC2C(C)OC(OC3C(C)=CCC4CC(CC5(C=CC(C)C(C(C)C)O5)O4)OC(=O)C4C=C(C)C(O)C5OCC(=CC=CC3C)C45O)CC2OC)OC(C)C1O (stereo not drawn)	13.4 min

SMILES	LC retention time
CNC(=O)Oc1cccc2ccccc12	7.42 min
CC12CCC3c4cc(O)c(O)cc4CCC3C1CCC2=O (stereo not drawn)	9.74 min
CCC1(c2cccc(O)c2)CCCCN(C)C1 (stereo not drawn)	6.47 min
CC(C)(C)NCC(O)COc1cccc2c1CC(O)C(O)C2 (stereo not drawn)	5.12 min
CNC(=O)ON=C(C)C(C)S(C)=O (stereo not drawn)	3.36 min
CC(C(=O)O)c1cccc(C(=O)c2ccccc2)c1 (stereo not drawn)	6.77 min
CC1(C)OCC2OC3(C(=O)O)OC(C)(C)OC3C2O1 (stereo not drawn)	4.3 min
CC12CCC3C(CCC4CC(OC5OC(C(=O)O)C(O)C(O)C5O)CCC43C)C1CCC2=O (stereo not drawn)	10.2 min
CCc1cccc(C)c1N(C(=O)CS(=O)(=O)O)C(C)COC (stereo not drawn)	8.19 min
Cc1nnc(-c2ccccc2)c(=O)n1N	5.22 min
COCCN(C(=O)CS(=O)(=O)O)c1c(C)cccc1C	6.16 min
CCCCc1c(C)nc(N(C)C)[nH]c1=O	7.97 min
CCc1ccc(C(=O)NN(C(=O)c2cc(C)cc(C)c2)C(C)(C)C)cc1	10.4 min
CCNC1CN(CCCOC)S(=O)(=O)c2sc(S(N)(=O)=O)cc21 (stereo not drawn)	5.74 min
CCOC(=O)NCCOc1ccc(Oc2ccccc2)cc1	10.6 min
CC(C(=O)O)c1cccc(Oc2ccccc2)c1 (stereo not drawn)	6.79 min
Cc1ccc(C(C)NC(=O)C(NC(=O)OC(C)C)C(C)C)cc1 (stereo not drawn)	9.8 min
CCNC(=O)NC(=O)C(C#N)=NOC	5.58 min
CC(=O)Nc1ccc(S(=O)(=O)Nc2nccs2)cc1	4.61 min
Nc1ncnc2c1ncn2C1OC(CO)C(O)C1O (stereo not drawn)	3.84 min
CCNCC(=O)Nc1c(C)cccc1C	5.99 min
CCCCOc1ccc(CC(=O)NO)cc1	9.24 min
CCC1(O)C(=O)OCc2c1cc1n(c2=O)Cc2cc3c(CN(C)C)c(O)ccc3nc2-1 (stereo not drawn)	5.61 min

SMILES	LC retention time
CCC1(CC)C(=O)NC(=O)NC1=O	4.8 min
CCC(C)C(=O)OC1CC(O)C=C2C=CC(C)C(CCC(O)CC(O)CC(=O)O)C21 (stereo not drawn)	8.27 min
CS(=O)(=O)Nc1ccc([N+](=O)[O-])cc1Oc1ccccc1	8.24 min
Cc1cccc(C)c1N(Cn1cccn1)C(=O)CS(=O)(=O)O	6.02 min
CCCCCCCCCc1ccc(O)cc1	12.9 min
NC(=O)c1ccccc1O	4.83 min
CNCC(O)c1ccc(O)cc1 (stereo not drawn)	2.26 min
O=C1CC(C(=O)O)CC(=O)C1=C(O)C1CC1 (stereo not drawn)	1.49 min
CC12CCC3c4ccc(O)cc4CCC3C1CC(O)C2=O (stereo not drawn)	8.42 min
CC1CCCCC1NC(=O)Nc1ccccc1 (stereo not drawn)	9.15 min
O=C(O)CCC(=O)c1ccc(-c2ccccc2)cc1	6.79 min
CCOC(=O)Nc1cccc(OC(=O)Nc2ccccc2)c1	8.53 min
COc1ccc(C(O)(c2cncnc2)C2CC2)cc1 (stereo not drawn)	7.12 min
CNC(=O)Nc1nc2ccccc2s1	7.1 min
COC(=O)c1ccc(C)cc1C1=NC(C)(C(C)C)C(=O)N1 (stereo not drawn)	7.15 min
COC=C(C(=O)O)c1ccccc1Oc1cc(Oc2ccccc2C#N)ncn1	7.94 min
COc1cc(S(=O)(=O)O)c(C)cc1N=Nc1c(O)ccc2cc(S(=O)(=O)O)ccc12	2.88 min
Cc1cccc(Nc2ccncc2S(=O)(=O)NC(=O)NC(C)C)c1	8.29 min
CCCCCc1cc(O)c2c(c1)OC(C)(C)C1CCC(CO)=CC21 (stereo not drawn)	12.3 min
CC(CCC(=O)O)C1CCC2C3C(O)CC4CC(O)CCC4(C)C3CCC12C (stereo not drawn)	11.1 min
O=c1[nH]c(=O)[nH]c(=O)[nH]1	1.34 min
c1coc(-c2nc3ccccc3[nH]2)c1	6.8 min
CCCCN1CCCCC1C(=O)Nc1c(C)cccc1C (stereo not drawn)	10.7 min

SMILES	LC retention time
CC(C)Nc1nc(NC(C)C)[nH]c(=O)n1	8.19 min
Cc1cccc(Nc2ccccc2C(=O)O)c1C	9.29 min
CCC1(c2ccccc2)C(=O)NC(=O)NC1=O	6.1 min
CNCC(O)c1cccc(O)c1 (stereo not drawn)	3.24 min
CC12CCC3c4ccc(O)cc4CCC3C1CCC2O (stereo not drawn)	10.8 min
CC(C)N(C(=O)C(=O)O)c1ccccc1	5.57 min
COC(=O)C(Cc1ccccc1)NC(=O)C(CC(=O)O)NCCC(C)(C)C (stereo not drawn)	10.2 min
S=c1[nH]c2ccccc2s1	6.58 min
CCOC(=O)c1cn2nc(OP(=S)(OCC)OCC)cc2nc1C	11.4 min
NC(=O)N1c2ccccc2C(O)C(O)c2ccccc21 (stereo not drawn)	6.64 min
CCOP(=O)(NC(C)C)Oc1ccc(SC)c(C)c1 (stereo not drawn)	10.4 min
CN(C)CCC=C1c2ccccc2COc2ccc(CC(=O)O)cc21	7.69 min
CCOP(=S)(NC(C)C)Oc1ccccc1C(=O)OC(C)C (stereo not drawn)	11.2 min
CCc1cccc(CC)c1N(COC)C(=O)CS(=O)(=O)O	8.02 min
CCC(=O)OC(OP(=O)(CCCCc1ccccc1)CC(=O)N1CC(C2CCCCC2)CC1C(=O)O)C(C)C (stereo not drawn)	13.3 min
COP(=O)(NC(C)=O)SC (stereo not drawn)	3.09 min
O=[N+]([O-])c1ccc(O)c([N+](=O)[O-])c1	4.5 min
CCCC(C)C1(CC)C(=O)NC(=S)NC1=O (stereo not drawn)	8.63 min
COc1cc(C=CC(=O)CC(=O)C=Cc2ccc(O)c(OC)c2)ccc1O	10 min
COc1ccc(-c2ccccc2)cc1NNC(=O)OC(C)C	9.82 min
CNC(=O)C(=NOC)c1ccccc1COc1cc(C)ccc1C	10.6 min
COCCN(C(=O)C(=O)O)c1c(C)cccc1C	6.07 min
CC(C)(C#N)c1cc(Cn2cncn2)cc(C(C)(C)C#N)c1	6.38 min

SMILES	LC retention time
CCCC(CCC)C(=O)O	7.04 min
CC(C(=O)O)c1ccc(C(=O)c2cccs2)cc1 (stereo not drawn)	8.96 min
COc1cccc(C(=O)NN(C(=O)c2cc(C)cc(C)c2)C(C)(C)C)c1C	9.55 min
CCCCCCCCCC(Oc1ccccc1)C(=O)O (stereo not drawn)	11.4 min
Cc1nnc(-c2ccccc2)c(=O)[nH]1	5.72 min
C=CCC1(C(C)C#CCC)C(=O)NC(=O)N(C)C1=O (stereo not drawn)	9.02 min
Cc1cc(C)cc(C(=O)N(NC(=O)c2ccc3c(c2C)CCCO3)C(C)(C)C)c1	9.91 min
Cc1c(N(C)CS(=O)(=O)O)c(=O)n(-c2ccccc2)n1C	4.89 min
CC(C(=O)O)c1ccc(C2CCCCC2)c2ccccc12 (stereo not drawn)	11.2 min
COC(=O)C1CC2=CC(=O)CCC2(C)C23OC2CC2(C)C(CCC24CCC(=O)O4)C13 (stereo not drawn)	6.74 min
CC12C=CC3=C4CCC(=O)C=C4CCC3C1CCC2O (stereo not drawn)	9.17 min
COC(=O)C(Cc1ccccc1)NC(=O)C(N)CC(=O)O (stereo not drawn)	4.98 min
CC(C)C1CCC(C(=O)NC(Cc2ccccc2)C(=O)O)CC1 (stereo not drawn)	11.4 min
CCCC(C)C1(CC)C(=O)NC(=O)NC1=O (stereo not drawn)	7.92 min
CC12CCC3c4ccc(O)c(O)c4CCC3C1CCC2=O (stereo not drawn)	9.89 min
CCCCOc1cc(C(=O)NCCN(CC)CC)c2ccccc2n1	11.6 min
CCCCC1=NC2(CCCC2)C(=O)N1Cc1ccc(-c2ccccc2-c2nn[nH]n2)cc1	10.1 min
CC(N)C12CC3CC(CC(C3)C1)C2 (stereo not drawn)	3.19 min
CC1=CC(=O)CC2CCC3C4CCC(O)C4(C)CCC3C12C (stereo not drawn)	13.8 min
CC1CC(=O)CC2CCC3C4CCC(O)C4(C)CCC3C12C (stereo not drawn)	14.4 min
C#CC1(O)CCC2C3CCC4=CC(=O)CCC4=C3C=CC21CC (stereo not drawn)	9.64 min
